In ChEMBL document CHEMBL3301361, “Experimental in vitro DMPK and physicochemical data on a set of publicly disclosed compounds”:
In brackets after ≈: the same amount, converted by molar mass. Non-standard residues stand in square brackets, D forms with d. Residues, ends and D or L forms follow the SMILES beside them. Dip = N[C@H](C(=O)O)C(c1ccccc1)c1ccccc1; Chg = N[C@H](C(=O)O)C1CCCCC1; NMeA = CN[C@@H](C)C(=O)O

Key:
in vitro [1] = conditions: human, liver microsomes
physchem [2] = conditions: octan-1-ol/water
in vitro [3] = conditions: human, plasma
physchem [4] = conditions: pH 7.4 buffer

SMILES | logD (physchem [2]; pH 7.4, LogD7.4) | fraction unbound at 5 h (in vitro [3]; PPB) | further results
Cc1c(Cl)ccc(OC2CCN(C[C@H](O)CNC(=O)c3c[nH]c(=O)c4ccc(S(C)(=O)=O)cc34)CC2)c1Cl |  |  | microsomal CLint (in vitro [1]): < 3 µL/min/mg
CC(=O)Nc1ccc(O)cc1OC[C@@H](O)CN1CCC2(CC1)Cc1cc(Cl)ccc1O2 |  |  | microsomal CLint (in vitro [1]): 8 µL/min/mg
N=C(N)c1cc2c(/C=C/c3ccc4c(c3)OCO4)cccc2s1 |  |  | microsomal CLint (in vitro [1]): 7 µL/min/mg
COc1cccc(NC(=O)CC23CC4CC(CC(C4)C2)C3)c1C |  |  | microsomal CLint (in vitro [1]): > 150 µL/min/mg
CCc1nc2c(N)nc3ccccc3c2n1CC(C)(C)O |  |  | microsomal CLint (in vitro [1]): < 3 µL/min/mg
COc1ccc(NC(=O)c2ccnc(N)n2)cc1 | 1.72 | 0.289 | 
CC[C@H](CO)Nc1nc(SCc2cccc(F)c2F)nc2nc(NC(C)C)sc12 |  |  | microsomal CLint (in vitro [1]): 42 µL/min/mg
Cc1nc(CSc2nc(N[C@H](C)CO)c3sc(=O)[nH]c3n2)cs1 | 1.73 | 0.0086 | 
C[C@H](CO)Nc1nc(SCc2cccc(F)c2F)nc2nc(NS(C)(=O)=O)sc12 | 0.92 | 0.0114 | solubility thermodynamic (physchem [4]): 832 µM (≈ 384 µg/mL)
NC(=O)c1sc(-c2ccc(Cl)cc2)cc1N |  |  | microsomal CLint (in vitro [1]): 31 µL/min/mg
CCC(=O)N1CCN(C(=O)c2cc(Cc3n[nH]c(=O)c4ccccc34)ccc2F)CC1 | 1.22 | 0.371 | solubility thermodynamic (physchem [4]): 251 µM (≈ 106 µg/mL)
NC(=O)Nc1sc(-c2ccc(CN3CCCCC3)cc2)cc1C(N)=O | 1.75 | 0.334 | 
O=C(CC12CC3CC(CC(C3)C1)C2)Nc1cccc2nc(NCCNCCO)ccc12 | 1.79 | 0.0457 | 
Cc1ccc2c(N)c(C(N)=O)sc2n1 |  |  | microsomal CLint (in vitro [1]): 13 µL/min/mg
Cc1cc(Nc2nc(N[C@@H](C)c3ccc(F)cn3)cnc2C)[nH]n1 | 1.73 | 0.16 | 
N=C(N)c1cc2c(OCc3ccccc3)cccc2s1 |  |  | microsomal CLint (in vitro [1]): 11 µL/min/mg
CN[C@@H](C)C(=O)N[C@H](C(=O)N1CCC[C@H]1C(=O)N[C@H](C(=O)OC)C(c1ccccc1)c1ccccc1)C1CCCCC1 (H-[NMeA][Chg]P[Dip]-OMe) | 2.42 | 0.176 | 
CC(C(=O)O)c1ccc2oc(-c3ccc(Cl)cc3)nc2c1 (configuration not stated) [BENOXAPROFEN] | 1.3 | 0.0024 | 
Cc1c(N)cccc1Cn1ccc(OCCc2cccs2)cc1=O [CG-400549] | 2.78 | 0.0499 | 
CNC1=Nc2ccc(Cl)cc2C(c2ccccc2)=[N+]([O-])C1 [CHLORDIAZEPOXIDE] |  |  | logD (physchem [2]; pH 7.4): 2.41; fraction unbound at 5 h (in vitro [3]): 0.0229
CN(C)CCCN1c2ccccc2CCc2ccc(Cl)cc21 [CLOMIPRAMINE] | 3.36 | 0.0374 | 

SMILES | logD (physchem [2]; pH 7.4, LogD7.4) | fraction unbound at 5 h (in vitro [3]; PPB) | further results
CCc1nc2c(N)nc3ccccc3c2n1CCCCNS(C)(=O)=O [CPG-52852] | 1.24 | 0.334 | solubility thermodynamic (physchem [4]): 537 µM (≈ 194 µg/mL)
O=C(NO)C1(CS(=O)(=O)c2ccc(Oc3ccc(Cl)cc3)cc2)CCOCC1 [CTS-1027] |  | 0.02 | solubility thermodynamic (physchem [4]): 126 µM (≈ 53.6 µg/mL)
CC(C)N(CCC(C(N)=O)(c1ccccc1)c1ccccn1)C(C)C (configuration not stated) [DISOPYRAMIDE] |  |  | logD (physchem [2]; pH 7.4): -0.54; fraction unbound at 5 h (in vitro [3]): 0.666
C[C@]12N[C@H](Cc3ccccc31)c1ccccc12 [DIZOCILPINE] |  |  | logD (physchem [2]; pH 7.4): 1.6; fraction unbound at 5 h (in vitro [3]): 0.529
CS(=O)(=O)c1ccc([C@@H](O)[C@@H](CF)NC(=O)C(Cl)Cl)cc1 [FLORFENICOL] |  |  | logD (physchem [2]; pH 7.4): 0.44; fraction unbound at 5 h (in vitro [3]): 0.676
CCOC(=O)c1ncn2c1CN(C)C(=O)c1cc(F)ccc1-2 [FLUMAZENIL] |  |  | logD (physchem [2]; pH 7.4): 1.1; fraction unbound at 5 h (in vitro [3]): 0.443
O=C1OC2(c3ccc(O)cc3Oc3cc(O)ccc32)c2ccccc21 [FLUORESCEIN] | 0 | 0.19 | 
COC(=O)[C@H]1[C@@H](c2ccc(I)cc2)C[C@@H]2CC[C@H]1N2CCCF [IOFLUPANE] |  |  | logD (physchem [2]; pH 7.4): 2.3; fraction unbound at 5 h (in vitro [3]): 0.201
Nc1nc(Nc2ccc(S(N)(=O)=O)cc2)nn1C(=O)c1c(F)cccc1F [JNJ-7706621] | 1.87 | 0.19 | 
CC(=O)N1CCN(c2ccc(OCC3COC(Cn4ccnc4)(c4ccc(Cl)cc4Cl)O3)cc2)CC1 (configuration not stated) [KETOCONAZOLE] |  |  | solubility thermodynamic (physchem [4]): 6.2 µM (≈ 3.29 µg/mL); fraction unbound at 5 h (in vitro [3]): 0.028
Cc1c(OCC(F)(F)F)ccnc1C[S+]([O-])c1nc2ccccc2[nH]1 (configuration not stated) [LANSOPRAZOLE] |  |  | logD (physchem [2]; pH 7.4): 2.7; fraction unbound at 5 h (in vitro [3]): 0.016
COc1c2occc2cc2ccc(=O)oc12 [METHOXSALEN] | 1.97 | 0.0768 | 
CC(C)(C(=O)c1cccnc1)c1cccnc1 [METYRAPONE] | 1.45 | 0.888 | 
Clc1ccc(C(c2ccccc2)N2CCNCC2)cc1 (configuration not stated) [NORCHLORCYCLIZINE] | 1.94 | 0.0581 | 
C1CCC(C(CC2CCCCN2)C2CCCCC2)CC1 (configuration not stated) [PERHEXILINE] | 3.02 | 0.0156 | 
CN(C)CCCN1c2ccccc2Sc2ccccc21 [PROMAZINE] | 2.56 | 0.101 | 
CN(CCOc1ccc(CC2SC(=O)NC2=O)cc1)c1ccccn1 (configuration not stated) [ROSIGLITAZONE] | 2.5 | 0.0026 | solubility thermodynamic (physchem [4]): 28.2 µM (≈ 10.1 µg/mL)
CCN(CC)CCNC(=O)c1c(C)[nH]c(/C=C2\C(=O)Nc3ccc(Cl)cc32)c1C [SU-11652] | 2.75 | 0.105 | 
COc1cc2nc(N3CCN(C(=O)C4CCCO4)CC3)nc(N)c2cc1OC (configuration not stated) [TERAZOSIN] | 0.9 | 0.204 | 
COc1ccc(C(CN(C)C)C2(O)CCCCC2)cc1 (configuration not stated) [VENLAFAXINE] |  |  | logD (physchem [2]; pH 7.4): 0.99; fraction unbound at 5 h (in vitro [3]): 0.814
